In US20140023611A1 (priority 2010, published 2014):

Assays:
human NaP2b (SLC34A2) = target: T1, human NaP2b (SLC34A2) (Homo sapiens, UniProt O95436); assay: Inhibition of NaP2b-mediated Pi (33P) uptake in transfected HEK293 cells, human NaP2b; type: cell-based; conditions: read-out: pIC50 range for human NaP2b (converted)
T1 construct: host or cells: HEK293
T1 sequence (O95436 1-690): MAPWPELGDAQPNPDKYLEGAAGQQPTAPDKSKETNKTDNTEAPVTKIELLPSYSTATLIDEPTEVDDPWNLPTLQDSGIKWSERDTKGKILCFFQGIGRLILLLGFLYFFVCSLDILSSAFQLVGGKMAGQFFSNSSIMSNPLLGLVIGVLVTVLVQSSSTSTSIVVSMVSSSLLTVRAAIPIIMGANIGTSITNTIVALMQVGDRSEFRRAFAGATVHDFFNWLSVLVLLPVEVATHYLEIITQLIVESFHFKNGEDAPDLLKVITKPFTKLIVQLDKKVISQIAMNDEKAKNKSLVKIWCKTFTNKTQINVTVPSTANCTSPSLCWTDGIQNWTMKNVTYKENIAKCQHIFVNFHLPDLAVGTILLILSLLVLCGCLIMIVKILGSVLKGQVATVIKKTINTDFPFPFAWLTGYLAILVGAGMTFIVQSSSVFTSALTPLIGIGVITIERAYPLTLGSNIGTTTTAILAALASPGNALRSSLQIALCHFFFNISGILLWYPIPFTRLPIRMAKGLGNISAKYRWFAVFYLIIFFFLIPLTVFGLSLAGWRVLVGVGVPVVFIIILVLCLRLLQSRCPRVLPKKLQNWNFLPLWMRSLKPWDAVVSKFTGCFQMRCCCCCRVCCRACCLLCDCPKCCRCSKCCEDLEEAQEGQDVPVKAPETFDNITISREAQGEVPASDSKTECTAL
Summary of the method: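 HEK293 cells transiently transfected with human NaP2b (Thr inserted after residue 37, N39D), endogenous PiT transport pharmacologically silenced. Sodium or choline buffer, pH 7.4, with 100 uM KH2PO4, 33P orthophosphate and compound (0.1 nM–30 uM, twelve concentrations, duplicate). 3-30 min at room temperature, scintillation counting, pIC50 derived.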

[1] = Determination of compound Cmax and AUC after oral gavage (plasma LC-MS/MS); type: in vivo, Sprague-Dawley rats; conditions: Sprague-Dawley, rat, plasma, po, Structure (I) examples, Table 15, actual oral dose 3-15 mg/kg, plasma 0.5-4 h
Summary of the method: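 Sprague-Dawley rats dosed by oral gavage at nominal 2.5 or 10 mg/kg; blood drawn at 0.5, 1, 2 and 4 h into K2EDTA. Plasma protein-precipitated with acetonitrile plus internal standard and analysed by LC-MS/MS against a plasma standard curve to derive Cmax and AUC.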

| Compound | IC50 (human NaP2b (SLC34A2)) | AUC [1] | Cmax [1] |
| --- | --- | --- | --- |
| CCN(CC)c1ccc(NC(=O)c2cccc(CCCOCCOCCOCCOCCC(=O)O)c2)c(-c2cc(C(=O)NCc3cccc(C(F)(F)F)c3)ccn2)c1 [Example 251, 16-(3-(4-(diethylamino)-2-(4-(3-(trifluoromethyl)benzylcarbamoyl)pyridin-2-yl)phenylcarbamoyl)phenyl)-4,7,10,13-tetraoxahexadecan-1-oic acid] | < 1000 nM | < 10 ng·h/mL | < 10 ng/mL |
| CCCN(CCC)c1ccc(NC(=O)c2cccc(COCCOCCOCCOCCOCCOCCOCCOCCOC)c2)c(-c2cc(C(=O)NCc3cccc(C(F)(F)F)c3)ccn2)c1 [Example 200, 2-(2-(3-(2,5,8,11,14,17,20,23,26-nonaoxaheptacosyl)benzamido)-5-(dipropylamino)phenyl)-N-(3-(trifluoromethyl)benzyl)isonicotinamide] | < 1000 nM | < 30 ng·h/mL | < 30 ng/mL |
| O=C(O)CCOCCOCCOCCOCCCc1cccc(C(=O)Nc2ccc(N3CCCCC3)cc2-c2cc(C(=O)N[C@H]3CCCc4ccccc43)ccn2)c1 [Example 252, 3-(2-(2-(2-(3-(3-((2-(4-(((S)-1,2,3,4-tetrahydronaphthalen-1-yl)carbamoyl)pyridin-2-yl)-4-(piperidin-1-yl)phenyl)carbamoyl)phenyl)propoxy)ethoxy)ethoxy)ethoxy)propanoic acid] | < 1000 nM | < 30 ng·h/mL | < 30 ng/mL |

The next lines start with the values.

| IC50 (human NaP2b (SLC34A2)) | AUC [1] | Cmax [1] | Compound |
| --- | --- | --- | --- |
| < 1000 nM | < 10 ng·h/mL | < 10 ng/mL | CCN(CC)c1ccc(NC(=O)c2cccc(CSCCOCCOCCOCCOCCOCCOCCOCCOC)c2)c(-c2cc(C(=O)N[C@H]3CCCc4ccccc43)ccn2)c1 [Example 286, (S)-2-(2-(3-(2,5,8,11,14,17,20,23-octaoxa-26-thiaheptacosan-27-yl)benzamido)-5-(diethylamino)phenyl)-N-(1,2,3,4-tetrahydronaphthalen-1-yl)isonicotinamide] |
| < 1000 nM | < 30 ng·h/mL | < 30 ng/mL | CCN(CC)c1ccc(NC(=O)c2cccc(CSCCOCCOCCOCCOCCOCCOCCOCCOC)c2)c(-c2cc(C(=O)NCc3cccc(C(F)(F)F)c3)ccn2)c1 [Example 265, 2-(2-(3-(2,5,8,11,14,17,20,23-octaoxa-26-thiaheptacosan-27-yl)benzamido)-5-(diethylamino)phenyl)-N-(3-(trifluoromethyl)benzyl)isonicotinamide] |
